From patent US4505893A, “Purified plasminogen activator, process for its production and thrombolytic composition containing it” (Asahi Kasei Kogyo Kabushiki Kaisha, priority 1982, dated 1985)
Square brackets hold non-standard residues; d marks the D form. Peptide text beside a SMILES is read from it. * marks the point of attachment. Sta = CC(C)C[C@H](N)[C@@H](O)CC(=O)O; Isovaleryl = CC(C)CC(=O)*

Assays:
[1] = biological target: T1, substance of this invention (plasminogen activator) (Homo sapiens, UniProt P00750); test: biochemical
T1 construct: endogenous in cells
T1 sequence (P00750 36-562): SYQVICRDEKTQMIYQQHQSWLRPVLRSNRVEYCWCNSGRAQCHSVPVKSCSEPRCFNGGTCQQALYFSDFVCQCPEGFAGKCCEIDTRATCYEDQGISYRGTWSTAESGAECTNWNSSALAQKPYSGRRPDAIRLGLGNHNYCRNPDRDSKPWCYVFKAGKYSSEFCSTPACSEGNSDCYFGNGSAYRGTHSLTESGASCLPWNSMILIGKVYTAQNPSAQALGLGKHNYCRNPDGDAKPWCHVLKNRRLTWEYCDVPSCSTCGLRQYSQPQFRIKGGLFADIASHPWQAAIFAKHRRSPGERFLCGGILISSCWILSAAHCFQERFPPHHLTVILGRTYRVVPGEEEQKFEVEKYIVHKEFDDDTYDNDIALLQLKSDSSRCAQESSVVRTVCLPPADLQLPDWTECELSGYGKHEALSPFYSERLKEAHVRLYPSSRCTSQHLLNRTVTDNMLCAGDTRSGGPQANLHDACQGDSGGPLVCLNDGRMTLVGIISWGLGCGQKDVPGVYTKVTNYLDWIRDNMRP

urokinase = urokinase (Homo sapiens, UniProt P00749); test: biochemical
plasminogen = test: Enhancement of activity with fibrin (plasminogen activation, Boc-Val-Leu-Lys-MCA); type: biochemical; conditions: 5 U/ml (urokinase 5 IU/ml), 25° C. 1 hour, 10 μM aminomethylcoumarin = 100%
fibrin = test: Affinity to fibrin (incorporation into formed fibrin); type: binding; conditions: 500 U/ml (urokinase 500 IU/ml); plasminogen-free fibrinogen + thrombin, 1 hour at room temperature; extracted with 2M ammonium thiocyanate
[2] = Hydrolysis activity on various organic substrates; type: biochemical; conditions: 37° C. 15 minutes, 1 μM aminomethylcoumarin = 100%, substance 100 U/ml, urokinase 120 IU/ml

## CC(C)CC(=O)N[C@H](C(=O)N[C@H](C(=O)N[C@@H](CC(C)C)[C@@H](O)CC(=O)N[C@@H](C)C(=O)N[C@@H](CC(C)C)[C@@H](O)CC(=O)O)C(C)C)C(C)C [Pepstatin] (Isovaleryl-VV[Sta]A[Sta]-OH)
[1]
  IC50: > 100 µM
urokinase
  IC50: > 100 µM

## CC(=O)N[C@@H](CC(C)C)C(=O)N[C@@H](CC(C)C)C(=O)N[C@H](C=O)CCCNC(=N)N [Leupeptin]
[1]
  IC50: 47.5 µM
urokinase
  IC50: 80.7 µM

## CC(C)C[C@H](NC(=O)[C@@H](NC(=O)N[C@@H](Cc1ccccc1)C(=O)O)[C@@H]1CCN=C(N)N1)C(=O)N[C@H](C=O)Cc1ccccc1 [Chymostatin]
[1]
  IC50: > 160 µM
urokinase
  IC50: > 160 µM

## CCOC(=O)c1ccc(OC(=O)CCCCCNC(=N)N)cc1 [FOY]
[1]
  IC50: 12.8 µM
urokinase
  IC50: 0.146 µM

## urokinase
plasminogen; fibrinogen added
  Hydrolysis Activity (%): 5.9%
plasminogen; fibrinogen not added
  Hydrolysis Activity (%): 28%
fibrin
  proportion of the substance incorporated in the fibrin: not incorporated in the fibrin at all
[2]; substrate Boc-Glu-Lys-Lys-MCA 0.1 mM
  Hydrolysis Activity (%): 2.82%
[2]; substrate Boc-Ileu-Glu-Gly-Arg-MCA 0.1 mM
  Hydrolysis Activity (%): 3.30%
[2]; substrate Boc-Phe-Ser-Arg-MCA 0.1 mM
  Hydrolysis Activity (%): 48.9%
[2]; substrate Glt-Gly-Arg-MCA 0.1 mM
  Hydrolysis Activity (%): 314%
[2]; substrate Pro-Phe-Arg-MCA 0.1 mM
  Hydrolysis Activity (%): 3.89%
[2]; substrate Z--Phe-Arg-MCA 0.1 mM
  Hydrolysis Activity (%): 2.15%
